Data on one compound can be found in patent publication US8999952B2, “Aripiprazole complex formulation and method” (Otsuka Pharmaceutical Co., Ltd., priority 2002, dated 2015).

One data set can be described thus: aqueous solubility. In kind it is physicochemical. Particulars: water; at room temperature.
Data set [1] is described as follows: tissue irritation at the intramuscular injection site. The format is in vivo. The settings on record: intramuscular (IM) injectable solution in water-miscible co-solvent and water-immiscible solvent/co-solvent systems.

In “aqueous solubility”, `O=C1CCc2ccc(OCCCCN3CCN(c4cccc(Cl)c4Cl)CC3)cc2N1` [Aripiprazole] gave a solubility of less than 1 µg/mL. Moreover, the “tissue irritation at the muscular site” value in data set [1] is recorded as “unacceptable (moderate to severe) tissue irritation”.

As a reminder, the solubility is the dissolved amount per volume that the medium holds.
